The target in the test is T1, Human HPK1, catalytic domain (Homo sapiens, UniProt Q92918).
T1 sequence (Q92918 1-346): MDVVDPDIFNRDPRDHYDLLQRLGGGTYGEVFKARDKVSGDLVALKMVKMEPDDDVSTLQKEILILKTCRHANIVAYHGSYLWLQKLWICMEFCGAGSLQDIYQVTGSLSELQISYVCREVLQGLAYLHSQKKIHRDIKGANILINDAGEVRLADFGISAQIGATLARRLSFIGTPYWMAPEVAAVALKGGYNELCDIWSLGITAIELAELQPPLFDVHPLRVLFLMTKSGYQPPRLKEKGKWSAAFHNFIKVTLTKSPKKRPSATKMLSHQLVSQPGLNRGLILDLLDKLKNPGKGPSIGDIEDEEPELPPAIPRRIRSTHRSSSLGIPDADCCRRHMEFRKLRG
The test is described as follows: HPK1-SLP76 TR-FRET Assay. As to conditions: 75 pM HPK1, ATP 10 uM, SLP76 10 nM, 30 min pre-incubation, 60 min reaction. It counts as biochemical. A general note: Time-resolved FRET reads energy transfer from a long-lived donor to a nearby acceptor.

As for `COc1cc2c(cc1Nc1ncc3ccc(-c4cncc(CO)c4)cc3n1)CNCC2` [Compound 1-53, (5-{2-[(6-methoxy-1,2,3,4-tetrahydroisoquinolin-7-yl)amino]quinazolin-7-yl}pyridin-3-yl)methanol], the IC50 came to 5.6 nM.

`Cc1c(-c2cc3nc(Nc4ccc5c(c4)CN(C(C)C)CC5)ncc3c(N)c2F)cnc2c1NCCO2` [Compound 2-76, 6-fluoro-7-(8-methyl-2,3-dihydro-11H-pyrido[2,3-b][1,4]oxazin-7-yl)-N˜2˜-[2-(propan-2-yl)-1,2,3,4-tetrahydroisoquinolin-7-yl]quinazoline-2,5-diamine] came in with an IC50 of 0.0321 nM.

In turn, `COc1cc2c(cc1Nc1ncc3ccc(N4CCN(C5CC5)C(=O)C4)cc3n1)CN(C)CC2` [Compound 3-73, 1-cyclopropyl-4-{2-[(6-methoxy-2-methyl-1,2,3,4-tetrahydroiso-quinolin-7-yl)amino]quinazolin-7-yl}piperazin-2-one] displayed an IC50 of 719 nM.

As for `COc1cc2c(cc1Nc1ncc3ccc(-c4cncc(N)c4C)cc3n1)CN(C)CC2` [Compound 1-3, 7-(5-amino-4-methylpyridin-3-yl)-N-(6-methoxy-2-methyl-1,2,3,4-tetrahydroisoquinolin-7-yl)quinazolin-2-amine], the IC50 was determined as 1.52 nM.

`Cc1c(-c2c(F)c(N)c3cnc(Nc4cc5c(cc4F)CCN(C)C5)nc3c2Cl)cnc2c1NCCO2` [Compound 2-185, (+ and −)-8-chloro-6-fluoro-N~2~-(6-fluoro-2-methyl-1,2,3,4-tetrahydroisoquinolin-7-yl)-7-(8-methyl-2,3-dihydro-1H-pyrido[2,3-b][1,4]oxazin-7-yl)quinazoline-2,5-diamine] showed an IC50 of 0.0303 nM.

In turn, `COc1cc2c(cc1Nc1ncc3ccc([C@H]4CC[C@H](N)CC4)cc3n1)CN(C)CC2` [Compound 5-1, 7-((1r,4r)-4-aminocyclohexyl)-N-(6-methoxy-2-methyl-1,2,3,4-tetrahydroisoquinolin-7-yl)quinazolin-2-amine] showed an IC50 of 662 nM.

For the molecule `COc1cc2c(cc1Nc1ncc3c(N)c(F)c(-c4ccc(-c5ncco5)cc4C)cc3n1)CN(C)CC2` [Compound 2-60, 6-fluoro-N~2~-(6-methoxy-2-methyl-1,2,3,4-tetrahydroisoquinolin-7-yl)-7-[2-methyl-4-(1,3-oxazol-2-yl)phenyl]quinazoline-2,5-diamine], half-maximal inhibition (IC50) was put at 469 nM.

The molecule `COc1cc2c(cc1Nc1ncc3c(N)c(F)c(-c4cc(C#N)ccc4C)cc3n1)CN(C)CC2` [Compound 2-51, 3-(5-amino-6-fluoro-2-((6-methoxy-2-methyl-1,2,3,4-tetrahydroisoquinolin-7-yl)amino)quinazolin-7-yl)-4-methylbenzonitrile] had an IC50 of 474 nM.

Molecule `COc1cc2c(cc1Nc1ncc3ccc(-c4cncc(N5CCNCC5)c4)cc3n1)CNCC2` [Compound 1-50, N-(6-methoxy-1,2,3,4-tetrahydroisoquinolin-7-yl)-7-[5-(piperazin-1-yl)pyridin-3-yl]quinazolin-2-amine] showed an IC50 of 5.9 nM.

Consider `C[C@@H]1COC(=O)N1c1cc(N)c2cnc(Nc3ccc(S(C)(=O)=O)cc3)nc2c1` [Compound 3-77, (R)-3-(5-amino-2-((4-(methyl-sulfonyl)phenyl)amino)quinaz-olin-7-yl)-4-methyloxazolidin-2-one], for which the half-inhibitory concentration (IC50) amounted to 24.3 nM.

As to `COc1cc2c(cc1Nc1ncc3ccc(NC4(C(=O)N(C)C)CC4)cc3n1)CN(C)CC2` [Compound 3-66, 1-({2-[(6-methoxy-2-methyl-1,2,3,4-tetrahydroisoquinolin-7-yl)amino]quinazolin-7-yl}-amino)-N,N-dimethylcyclopro-pane-1-carboxamide], the 50% inhibitory concentration (IC50) came out at 294 nM.

For the molecule `COc1cc2c(cc1Nc1ncc3ccc(NC4CCCC(O)C4)cc3n1)CN(C)CC2` (racemic) [Compound 3-39, (±)-3-({2-[(6-methoxy-2-methyl-1,2,3,4-tetrahydroisoquinolin-7-yl)amino]quinazolin-7-yl}-amino)cyclohexan-1-ol], the 50% inhibitory concentration (IC50) was 228 nM.

`Cc1c(-c2cc3nc(Nc4ccc(C5CCN(C)C5=O)cc4)ncc3c(N)c2F)cnc2c1NCCO2` (single isomer, unassigned) [Compound 2-146, (R or S)-3-(4-{[5-amino-6-fluoro-7-(8-methyl-2,3-dihydro-1H-pyrido[2,3-b][1,4]oxazin-7-yl)quinazolin-2-ylamino}phenyl)-1-methylpyrrolidin-2-one] yielded an IC50 of 0.0505 nM.

With `COc1cc2c(cc1Nc1ncc3ccc(-c4c(C)cccc4F)cc3n1)CNCC2` [Compound 1-94, 7-(2-fluoro-6-methylphenyl)-N-(6-methoxy-1,2,3,4-tetrahydroisoquinolin-7-yl)quinazolin-2-amine], the IC50 turned out to be 81.3 nM.

`CNS(=O)(=O)c1cccc(Nc2ncc3c(N)c(F)c(-c4cnc5c(c4C)NCCO5)cc3n2)c1` [Compound 2-34] gave an IC50 of 0.118 nM.

As to `COc1cc2c(cc1Nc1ncc3ccc(NCC(=O)N4CCOCC4)cc3n1)CN(C)CC2` [Compound 3-64, 2-({2-[(6-methoxy-2-methyl-1,2,3,4-tetrahydroisoquinolin-7-yl)amino]quinazolin-7-yl}-amino)-1-(morpholin-4-yl)ethan-1-one], 115 nM corresponded to half-maximal inhibition (IC50).

In turn, `COc1cc2c(cc1Nc1ncc3ccc(-c4cccc(N)c4C)cc3n1)CNCC2` [Compound 1-31, 7-(3-amino-2-methylphenyl)-N-(6-methoxy-1,2,3,4-tetrahydroisoquinolin-7-yl)quinazolin-2-amine] showed an IC50 of 204 nM.

Take `COc1cc2c(cc1Nc1ncc3ccc(-c4ccccc4-c4ccnn4C)cc3n1)CN(C)CC2` [Compound 1-109, N-(6-methoxy-2-methyl-1,2,3,4-tetrahydroisoquinolin-7-yl)-7-[2-(1-methyl-1H-pyrazol-5-yl)phenyl]quinazolin-2-amine]: inhibition was half-maximal at 0.812 nM (IC50).

On to `COc1cc2c(cc1Nc1ncc3ccc(OCc4ccc(N5CCNCC5)nc4)cc3n1)CN(C)CC2` [Compound 4-1, N-(6-methoxy-2-methyl-1,2,3,4-tetrahydroisoquin-olin-7-yl)-7-{[6-(piperazin-1-yl)pyridin-3-yl]methoxy}-quinazolin-2-amine], for which the midpoint of inhibition, the IC50, lay at 15.2 nM.

`COc1cc2c(cc1Nc1ncc3c(N)c(F)c(-c4cnc5c(c4C)NCCO5)c(Cl)c3n1)CN(C)CC2` (single isomer, unassigned) [Compound 2-93, (+ or −)-8-chloro-6-fluoro-N~2~-(6-methoxy-2-methyl-1,2,3,4-tetrahydroisoquinolin-7-yl)-7-(8-methyl-2,3-dihydro-1H-pyrido[2,3-b][1,4]oxazin-7-yl)quinazoline-2,5-diamine]: the midpoint of inhibition, the IC50, lay at 0.0213 nM.

As to `COc1cc2c(cc1Nc1ncc3c(N)c(F)c(-c4cnc5c(c4C)NCCO5)c(Cl)c3n1)CN(C(C)C)CC2` [Compound 2-106, (+ or −)-8-chloro-6-fluoro-N2-(2-isopropyl-6-methoxy-1,2,3,4-tetrahydroisoquinolin-7-yl)-7-(8-methyl-2,3-dihydro-1H-pyrido[2,3-b][1,4]oxazin-7-yl)quinazoline-2,5-diamine], it took 5.76 nM to reach half-maximal inhibition (IC50).

On to `CNC(=O)c1ccc(Nc2ncc3c(N)c(F)c(-c4cnc5c(c4C)NCCO5)c(Cl)c3n2)c(OC)c1` [Compound 2-97, (+ or −)-4-{[5-amino-8-chloro-6-fluoro-7-(8-methyl-2,3-dihydro-1H-pyrido[2,3-b][1,4]oxazin-7-yl)quinazolin-2-yl]amino}-3-methoxy-N-methylbenzamide], for which the half-maximal inhibitory concentration (IC50) was determined as 0.679 nM.

As a reminder, the IC50 is the concentration that gives 50% inhibition.
